Columns and labels:
[1] = Solid state stability on exposure to high relative humidity; type: physicochemical
[2] = Solid state stability on exposure to high temperatures and high relative humidity; type: physicochemical

With [Cl][Mn-5]1234([Cl])[n+]5c6cccc5C[NH+]1[C@H]1CCCC[C@@H]1[NH+]2CC[NH+]3[C@H]1CCCC[C@@H]1[NH+]4C6 (some centres unmarked) [Form AM1, Avasopasem manganese] the “stability when exposed to high relative humidity” value [1] was “stable”.

For [Cl][Mn-5]1234([Cl])[n+]5c6cccc5C[NH+]1[C@H]1CCCC[C@@H]1[NH+]2CC[NH+]3[C@H]1CCCC[C@@H]1[NH+]4C6 (some centres unmarked) [Form AM2, Avasopasem manganese], the “stability when exposed to high temperatures and high relative humidity” value [2] was “stable”.

From patent US20230071463A1, “SOLID STATE FORMS OF […] AND PROCESS FOR PREPARATION THEREOF” (TEVA PHARMACEUTICALS INTERNATIONAL GMBH, priority 2020, published 2023)
